According to ChEMBL document CHEMBL3600331, “Small molecule inhibits activity of scavenger receptor A: Lead identification and preliminary studies” (Bioorg Med Chem Lett, 2015):
Activity calls are given as the source filed them. No cut-off for these calls is given here.

Legend:
[1] = target: T1, Macrophage scavenger receptor types I and II (Mus musculus) (UniProt P30204); assay: Inhibition of scavenger receptor A in wild type C57BL/6 mouse BMDC assessed as gp100 (25 to 33) peptide-induced T cell activation by measuring IL2 production at 20 uM after 56 hrs by ELISA
T1 sequence (whole entry): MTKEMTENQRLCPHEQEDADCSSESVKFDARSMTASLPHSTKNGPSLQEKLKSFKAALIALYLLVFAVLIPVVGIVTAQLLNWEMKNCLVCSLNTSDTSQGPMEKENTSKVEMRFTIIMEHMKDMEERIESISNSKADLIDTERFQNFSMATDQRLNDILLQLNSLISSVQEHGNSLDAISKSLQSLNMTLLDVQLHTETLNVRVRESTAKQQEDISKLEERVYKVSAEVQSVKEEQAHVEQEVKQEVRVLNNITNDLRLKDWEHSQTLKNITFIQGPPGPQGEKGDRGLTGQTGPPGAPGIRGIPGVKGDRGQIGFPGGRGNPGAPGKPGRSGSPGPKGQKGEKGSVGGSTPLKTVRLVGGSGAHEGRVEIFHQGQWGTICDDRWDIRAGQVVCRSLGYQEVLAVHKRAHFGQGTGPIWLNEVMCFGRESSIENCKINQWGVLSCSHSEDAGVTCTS

[2] = target: T1, Macrophage scavenger receptor types I and II (Mus musculus); assay: Inhibition of scavenger receptor A in mouse DC1.2 cells assessed as decrease in poly(I:C)-induced activation of STAT1 pretreated for 2 hrs before poly(I:C) stimulation measured after 3 hrs by immunoblotting; format: cell-based
[3] = target: T1, Macrophage scavenger receptor types I and II (Mus musculus); assay: Inhibition of scavenger receptor A in wild type C57BL/6 mouse BMDC assessed as OVA257-264 peptide-induced T cell activation by measuring IL2 production at 30 uM after 56 hrs by ELISA
T-cell = assay: Inhibition of OVA257-264 peptide-induced T cell activation in SRA-deficient C57BL/6 mouse BMDC assessed as IL2 production at 10 to 30 uM after 56 hrs by ELISA; format: functional, cell-based
B3Z = assay: Inhibition of scavenger receptor A (unknown origin) in mouse B3Z cells assessed as anti-CD3/CD28 antibody-induced T cell activation by measuring transcription of il2 gene after 5 hrs by beta-galactosidase assay; format: cell-based
[4] = target: T1, Macrophage scavenger receptor types I and II (Mus musculus); assay: Inhibition of scavenger receptor A in wild type C57BL/6 mouse BMDC assessed as OVA257-264 peptide-induced T cell activation by measuring IL2 production at 10 uM after 56 hrs by ELISA
[5] = target: T1, Macrophage scavenger receptor types I and II (Mus musculus); assay: Inhibition of scavenger receptor A in mouse DC1.2 cells assessed as decrease in poly(I:C)-induced activation of IRF3 pretreated for 2 hrs before poly(I:C) stimulation measured after 3 hrs by immunoblotting; format: cell-based

SMILES	inhibition [1]	inhibition [2]	inhibition [3]	inhibition (T-cell)	inhibition (B3Z)	inhibition [4]	inhibition [5]
O=C(O)c1cc(O)c2c(c1)[C@@H]([C@H]1c3cc(C(=O)O)cc(O)c3C(=O)c3c(O[C@@H]4O[C@H](CO)[C@@H](O)[C@H](O)[C@H]4O)cccc31)c1cccc(O[C@@H]3O[C@H](CO)[C@@H](O)[C@H](O)[C@H]3O)c1C2=O	Active						
O=C(O)c1cc(O)c2c(c1)C(=O)c1cccc(O)c1C2=O	Active	Dose-dependent effect	Active	inactive	Dose-dependent effect	Active	Dose-dependent effect
